Experimental data taken from patent publication US11661403B2, “Oxadiazole compounds” (Vivace Therapeutics, Inc., priority 2018, dated 2023).

test system: 8XTBD luciferase reporter (YAP) in HEK293T cells; assay: YAP Reporter Assay; format: cell-based; details: Homo sapiens, HEK-293T, 24 h, read-out: Firefly Luciferase IC50 (μM)

| Structure (SMILES) | IC50 [µM] |
| --- | --- |
| O=C1N[C@H](c2nnc(-c3ccccc3Nc3ccc(C(F)(F)F)cc3)o2)CO1 [Compound 78, (S)-4-(5-(2-((4-(trifluoromethyl)phenyl)amino)phenyl)-1,3,4-oxadiazol-2-yl)oxazolidin-2-one] | 0.1 to 1 |

same assay, conditions: Homo sapiens, HEK-293T; HEK293T cells stably transfected with 8XTBD luciferase reporter and pRLTK; 24-hr incubation; top concentration 3 μM; read-out: Firefly Luciferase IC50

| Structure (SMILES) | IC50 [µM] |
| --- | --- |
| C/C=C/c1nnc(-c2ccccc2Nc2ccc(C(F)(F)F)cc2)o1 [Compound 117, (E)-2-(5-(prop-1-en-1-yl)-1,3,4-oxadiazol-2-yl)-N-(4-(trifluoromethyl)phenyl)aniline] | 0.1 to 1 |
| NC(=O)CNc1nnc(-c2ccccc2Nc2ccc(C(F)(F)F)cc2)o1 [Compound 24, 2-((5-(2-((4-(trifluoromethyl)phenyl)amino)phenyl)-1,3,4-oxadiazol-2-yl)amino)acetamide] | 0.1 to 1 |
| CCC(C)(O)c1nnc(-c2ccccc2Nc2ccc(C(F)(F)F)cc2)o1 (stereo not drawn) [Compound 135, 2-(5-(2-((4-(trifluoromethyl)phenyl)amino)phenyl)-1,3,4-oxadiazol-2-yl)butan-2-ol] | < 0.1 |
| O=C(O)C1(c2nnc(-c3ccccc3Nc3ccc(C(F)(F)F)cc3)o2)CC1 [Compound 166, 1-(5-(2-((4-(trifluoromethyl)phenyl)amino)phenyl)-1,3,4-oxadiazol-2-yl)cyclopropane-1-carboxylic Acid] | < 0.1 |
| O=c1[nH]c(-c2nnc(-c3ccccc3Nc3ccc(C(F)(F)F)cc3)o2)no1 [Compound 50, 3-[5-[2-[4-(trifluoromethyl)anilino]phenyl]-1,3,4-oxadiazol-2-yl]-4H-1,2,4-oxadiazol-5-one] | 1 to 5 |
| NCc1nnc(-c2ccccc2Nc2ccc(C(F)(F)F)cc2)o1 [Compound 28, 2-[5-(aminomethyl)-1,3,4-oxadiazol-2-yl]-N-[4-(trifluoromethyl)phenyl]aniline] | 0.1 to 1 |
| CC(CN(C)C#N)c1nnc(-c2ccccc2Nc2ccc(C(F)(F)F)cc2)o1 (stereo not drawn) [Compound 152, N-methyl-N-(2-(5-(2-((4-(trifluoromethyl)phenyl)amino)phenyl)-1,3,4-oxadiazol-2-yl)propyl)cyanamide] | < 0.1 |
| N#CN1CCCC1c1nnc(-c2ccccc2Nc2ccc(C(F)(F)F)cc2)o1 (stereo not drawn) [Compound 171, 2-(5-(2-((4-(trifluoromethyl)phenyl)amino)phenyl)-1,3,4-oxadiazol-2-yl)pyrrolidine-1-carbonitrile] | < 0.1 |
| OC(CCl)c1nnc(-c2ccccc2Nc2ccc(C(F)(F)F)cc2)o1 (stereo not drawn) [Compound 81, 2-chloro-1-(5-(2-((4-(trifluoromethyl)phenyl)amino)phenyl)-1,3,4-oxadiazol-2-yl)ethan-1-ol] | < 0.1 |
| OCC(O)(CO)c1nnc(-c2ccccc2Nc2ccc(C(F)(F)F)cc2)o1 [Compound 201, 2-(5-(2-((4-(trifluoromethyl)phenyl)amino)phenyl)-1,3,4-oxadiazol-2-yl)propane-1,2,3-triol] | < 0.1 |
| FC(F)(F)c1ccc(Nc2ccccc2-c2nnc(OC/C=C/Br)o2)cc1 [Compound 82, (E)-2-(5-((3-bromoallyl)oxy)-1,3,4-oxadiazol-2-yl)-N-(4-(trifluoromethyl)phenyl)aniline] | 0.1 to 1 |
| CN(C#N)CC1(c2nnc(-c3ccccc3Nc3ccc(C(F)(F)F)cc3)o2)CC1 [Compound 140, N-methyl-N-((1-(5-(2-((4-(trifluoromethyl)phenyl)amino)phenyl)-1,3,4-oxadiazol-2-yl)cyclopropyl)methyl)cyanamide] | < 0.1 |
| CNC(C)(C)c1nnc(-c2ccccc2Nc2ccc(C(F)(F)F)cc2)o1 [Compound 156, 2-(5-(2-(methylamino)propan-2-yl)-1,3,4-oxadiazol-2-yl)-N-(4-(trifluoromethyl)phenyl)aniline] | 0.1 to 1 |
| OCC(O)c1nnc(-c2ccccc2Nc2ccc(C(F)(F)F)cc2)o1 (stereo not drawn) [Compound 25, 1-[5-[2-[4-(trifluoromethyl)anilino]phenyl]-1,3,4-oxadiazol-2-yl]ethane-1,2-diol] | < 0.1 |
| Nc1nnc(-c2ccccc2Nc2ccc(C(F)(F)F)cc2)o1 [Compound 4, 5-(2-((4-(trifluoromethyl)phenyl)amino)phenyl)-1,3,4-oxadiazol-2-amine] | 0.1 to 1 |
| FC(F)(F)c1ccc(Nc2ccccc2-c2nnc(-c3nn[nH]n3)o2)cc1 [Compound 48, 2-[5-(2H-tetrazol-5-yl)-1,3,4-oxadiazol-2-yl]-N-[4-(trifluoromethyl)phenyl]aniline] | 1 to 5 |

| Structure (SMILES) | IC50 [µM] |
| --- | --- |
| CNC(C)c1nnc(-c2ccccc2Nc2ccc(C(F)(F)F)cc2)o1 (stereo not drawn) [Compound 159, 2-(5-(1-(methylamino)ethyl)-1,3,4-oxadiazol-2-yl)-N-(4-(trifluoromethyl)phenyl)aniline] | 0.1 to 1 |
| FC(F)(F)c1ccc(Nc2ccccc2-c2nnc(C3CCCN3)o2)cc1 (stereo not drawn) [Compound 169, 2-(5-(pyrrolidin-2-yl)-1,3,4-oxadiazol-2-yl)-N-(4-(trifluoromethyl)phenyl)aniline] | 0.1 to 1 |
| CON(C)C(=O)C(C)(C)c1nnc(-c2ccccc2Nc2ccc(C(F)(F)F)cc2)o1 [Compound 87, N-methoxy-N,2-dimethyl-2-(5-(2-((4-(trifluoromethyl)phenyl)amino)phenyl)-1,3,4-oxadiazol-2-yl)propanamide] | < 0.1 |
| CN(CCO)c1nnc(-c2ccccc2Nc2ccc(C(F)(F)F)cc2)o1 [Compound 19, 2-(methyl(5-(2-((4-(trifluoromethyl)phenyl)amino)phenyl)-1,3,4-oxadiazol-2-yl)amino)ethan-1-ol] | 0.1 to 1 |
| CN(C)C(=O)C1(c2nnc(-c3ccccc3Nc3ccc(C(F)(F)F)cc3)o2)CC1 [Compound 185, N,N-dimethyl-1-(5-(2-((4-(trifluoromethyl)phenyl)amino)phenyl)-1,3,4-oxadiazol-2-yl)cyclopropane-1-carboxamide] | 0.1 to 1 |
| N#CCNC(=O)c1nnc(-c2ccccc2Nc2ccc(C(F)(F)F)cc2)o1 [Compound 114, N-(cyanomethyl)-5-(2-((4-(trifluoromethyl)phenyl)amino)phenyl)-1,3,4-oxadiazole-2-carboxamide] | < 0.1 |
| FC(F)(F)c1ccc(Nc2ccccc2-c2nnc(C3CO3)o2)cc1 (stereo not drawn) [Compound 122, 2-(5-(oxiran-2-yl)-1,3,4-oxadiazol-2-yl)-N-(4-(trifluoromethyl)phenyl)aniline] | < 0.1 |
| CN(Cc1nnc(-c2ccccc2Nc2ccc(C(F)(F)F)cc2)o1)C(=O)OC(C)(C)C [Compound 167, Tert-Butyl Methyl((5-(2-((4-(trifluoromethyl)phenyl)amino)phenyl)-1,3,4-oxadiazol-2-yl)methyl)carbamate] | 1 to 5 |
| CC(c1nnc(-c2ccccc2Nc2ccc(C(F)(F)F)cc2)o1)N(C)C#N (stereo not drawn) [Compound 161, N-methyl-N-(1-(5-(2-((4-(trifluoromethyl)phenyl)amino)phenyl)-1,3,4-oxadiazol-2-yl)ethyl)cyanamide] | < 0.1 |
| O=C(O)Cc1nnc(-c2ccccc2Nc2ccc(C(F)(F)F)cc2)o1 [Compound 119, 2-(5-(2-((4-(trifluoromethyl)phenyl)amino)phenyl)-1,3,4-oxadiazol-2-yl)acetic acid] | 0.1 to 1 |
| O=C1NC(c2nnc(-c3ccccc3Nc3ccc(C(F)(F)F)cc3)o2)CO1 (stereo not drawn) [Compound 17, 4-(5-(2-((4-(trifluoromethyl)phenyl)amino)phenyl)-1,3,4-oxadiazol-2-yl)oxazolidin-2-one] | < 0.1 |
| COCCNC(=O)c1nnc(-c2ccccc2Nc2ccc(C(F)(F)F)cc2)o1 [Compound 190, N-(2-methoxyethyl)-5-(2-((4-(trifluoromethyl)phenyl)amino)phenyl)-1,3,4-oxadiazole-2-carboxamide] | < 0.1 |
| O=C1NCCN1c1nnc(-c2ccccc2Nc2ccc(C(F)(F)F)cc2)o1 [Compound 34, 1-(5-(2-((4-(trifluoromethyl)phenyl)amino)phenyl)-1,3,4-oxadiazol-2-yl)imidazolidin-2-one] | 0.1 to 1 |
| CC(C)(C#N)c1nnc(-c2ccccc2Nc2ccc(C(F)(F)F)cc2)o1 [Compound 164, 2-methyl-2-(5-(2-((4-(trifluoromethyl)phenyl)amino)phenyl)-1,3,4-oxadiazol-2-yl)propanenitrile] | < 0.1 |
| CCNCCc1nnc(-c2ccccc2Nc2ccc(C(F)(F)F)cc2)o1 [Compound 94, 2-(5-(2-(ethylamino)ethyl)-1,3,4-oxadiazol-2-yl)-N-(4-(trifluoromethyl)phenyl)aniline] | 1 to 5 |
| N#CN1CCC(c2nnc(-c3ccccc3Nc3ccc(C(F)(F)F)cc3)o2)C1 (stereo not drawn) [Compound 177, 3-(5-(2-((4-(trifluoromethyl)phenyl)amino)phenyl)-1,3,4-oxadiazol-2-yl)pyrrolidine-1-carbonitrile] | 0.1 to 1 |

same assay, conditions: Homo sapiens, HEK-293T; […]; 24-hr incubation; top concentration 3 μM; read-out: Firefly Luciferase IC50

| Structure (SMILES) | IC50 [µM] |
| --- | --- |
| OC(CCCl)c1nnc(-c2ccccc2Nc2ccc(C(F)(F)F)cc2)o1 (stereo not drawn) [Compound 80, 3-chloro-1-(5-(2-((4-(trifluoromethyl)phenyl)amino)phenyl)-1,3,4-oxadiazol-2-yl)propan-1-ol] | < 0.1 |
| CC(=O)NC1(c2nnc(-c3ccccc3Nc3ccc(C(F)(F)F)cc3)o2)CC1 [Compound 59, N-(1-(5-(2-((4-(trifluoromethyl)phenyl)amino)phenyl)-1,3,4-oxadiazol-2-yl)cyclopropyl)acetamide] | 0.1 to 1 |
| C#CCNC(=O)C(C)(C)c1nnc(-c2ccccc2Nc2ccc(C(F)(F)F)cc2)o1 [Compound 112, 2-methyl-N-(prop-2-yn-1-yl)-2-(5-(2-((4-(trifluoromethyl)phenyl)amino)phenyl)-1,3,4-oxadiazol-2-yl)propanamide] | 1 to 5 |
| C=CCOc1nnc(-c2ccccc2Nc2ccc(C(F)(F)F)cc2)o1 [Compound 84, 2-(5-(allyloxy)-1,3,4-oxadiazol-2-yl)-N-(4-(trifluoromethyl)phenyl)aniline] | 0.1 to 1 |
| CC(C)(C(=O)NCC#N)c1nnc(-c2ccccc2Nc2ccc(C(F)(F)F)cc2)o1 [Compound 110, N-(cyanomethyl)-2-methyl-2-(5-(2-((4-(trifluoromethyl)phenyl)amino)phenyl)-1,3,4-oxadiazol-2-yl)propanamide] | 1 to 5 |
| N#CCCNC(=O)c1nnc(-c2ccccc2Nc2ccc(C(F)(F)F)cc2)o1 [Compound 113, N-(2-cyanoethyl)-5-(2-((4-(trifluoromethyl)phenyl)amino)phenyl)-1,3,4-oxadiazole-2-carboxamide] | < 0.1 |
